The test system of data set [1] is Staphylococcus aureus. Nature of the data set: Antibacterial activity against Staphylococcus aureus ATCC 29213 by NCCLS two-fold dilution method. Format: functional.
In data set [2] the test system is Staphylococcus aureus. Nature of the data set: Antibacterial activity against Staphylococcus aureus ATCC 25923 after 24 hrs by spectrophotometric analysis. Format: functional, organism-based. The settings on record: Staphylococcus aureus, ATCC 25923, 24 h; for IC50: read-out: IC50.
In data set [3] the test system is L929. Nature of the data set: Cytotoxicity against mouse L929 cells assessed as cell viability up to MIC 0.78 ug/ml after 24 hrs by MTT assay. In kind it is cell-based. The settings on record: l929, 24 h.
Data set [4] has as its system L929. Kind of data set: Cytotoxicity against mouse L929 cells assessed as cell viability up to MIC 0.39 ug/ml after 24 hrs by MTT assay. In kind it is cell-based. The settings on record: l929, 24 h.
The subject of data set [5] is Staphylococcus aureus. Kind of data set: Antibacterial activity against Staphylococcus aureus ATCC 29213 after 24 hrs by spectrophotometric analysis. Format: functional, organism-based. To be noted: Staphylococcus aureus, ATCC 29213, 24 h; for IC50: read-out: IC50.
Data set [6] concerns Staphylococcus aureus. Nature of the data set: Antibacterial activity against gentamicin-resistant Staphylococcus aureus ATCC 33592 by NCCLS two-fold dilution method. Format: functional.
The test system of data set [7] is Staphylococcus aureus. Kind of data set: Antibacterial activity against methicillin-resistant Staphylococcus aureus ATCC 700699 after 24 hrs by spectrophotometric analysis. Format: functional, organism-based. The settings on record: Staphylococcus aureus, ATCC 700699, 24 h; for IC50: read-out: IC50.
Data set [8] relates to Escherichia coli. Kind of data set: Antibacterial activity against Escherichia coli after 24 hrs by spectrophotometric analysis. The settings on record: Escherichia coli, 24 h; for IC50: read-out: IC50. Format: functional, organism-based.
Data set [9] concerns Klebsiella pneumoniae. Kind of data set: Antibacterial activity against Klebsiella pneumoniae after 24 hrs by spectrophotometric analysis. In kind it is functional, organism-based. The settings on record: Klebsiella pneumoniae, 24 h; for IC50: read-out: IC50.
The subject of data set [10] is Klebsiella pneumoniae. Nature of the data set: Antibacterial activity against Klebsiella pneumoniae by NCCLS two-fold dilution method. In kind it is functional.
For data set [11], the system named is Staphylococcus aureus. Kind of data set: Antibacterial activity against Staphylococcus aureus ATCC 25923 by NCCLS two-fold dilution method. Format: functional. To be noted: for MIC: Staphylococcus aureus, ATCC 25923.
In data set [12] the test system is Staphylococcus aureus. Kind of data set: Antibacterial activity against gentamicin-resistant Staphylococcus aureus ATCC 33592 after 24 hrs by spectrophotometric analysis. To be noted: Staphylococcus aureus, ATCC 33592, 24 h; for IC50: read-out: IC50. Format: functional, organism-based.
In data set [13] the test system is L929. Nature of the data set: Cytotoxicity against mouse L929 cells assessed as cell morphological changes at 12.5 to 50 ug/ml after 24 hrs by giemsa staining based phase contrast microscopy. The settings on record: l929, 24 h.
In data set [14] the test system is Staphylococcus aureus. Nature of the data set: Antibacterial activity against methicillin-resistant Staphylococcus aureus ATCC 700699 by NCCLS two-fold dilution method. In kind it is functional.
The test system of data set [15] is Escherichia coli. Kind of data set: Antibacterial activity against Escherichia coli by NCCLS two-fold dilution method. Format: functional.

Each structure is given as a SMILES string. ≈ marks a conversion by molar mass, not a printed value.

We go through six molecules from ChEMBL document CHEMBL3232987, “Investigation of Ugi-4CC derived 1H-tetrazol-5-yl-(aryl) methyl piperazinyl-6-fluoro-4-oxo-1,4-dihydroquinoline-3-carboxylic acid: synthesis, biology and 3D-QSAR analysis” (Eur J Med Chem, 2014).

Turning to `CCn1cc(C(=O)O)c(=O)c2cc(F)c(N3CCN(C(c4ccco4)c4nnnn4C(C)(C)C)CC3)cc21` (configuration not stated), the MIC (usually the lowest concentration found to suppress growth) against Staphylococcus aureus [1] stood at 0.78 µg/mL (≈ 1.49 µM); in the data set on Staphylococcus aureus [2], 0.4 µg/mL (≈ 0.764 µM); against Staphylococcus aureus [5], 0.6 µg/mL (≈ 1.15 µM); in the data set with Staphylococcus aureus [6], 0.78 µg/mL (≈ 1.49 µM); in the data set with Staphylococcus aureus [7], 46.9 µg/mL (≈ 89.6 µM); against Escherichia coli [8], 4.2 µg/mL (≈ 8.02 µM). The MIC was determined as 10.1 µg/mL (≈ 19.3 µM) in the data set on Klebsiella pneumoniae [9]; 12.5 µg/mL (≈ 23.9 µM) in the data set on Klebsiella pneumoniae [10]; 0.78 µg/mL (≈ 1.49 µM) in the data set on Staphylococcus aureus [11]; 0.5 µg/mL (≈ 0.955 µM) in the data set with Staphylococcus aureus [12]; 50 µg/mL (≈ 95.5 µM) with Staphylococcus aureus [14]; 6.25 µg/mL (≈ 11.9 µM) in the data set on Escherichia coli [15]. In addition, the IC50 (commonly the concentration that inhibits the measured activity by half) with Staphylococcus aureus [2] came out at 0.3 µg/mL (≈ 0.573 µM); with Staphylococcus aureus [5] it was 0.2 µg/mL (≈ 0.382 µM); in the data set with Staphylococcus aureus [7], 24.6 µg/mL (≈ 47 µM); with Escherichia coli [8] it was 2.9 µg/mL (≈ 5.54 µM); with Klebsiella pneumoniae [9], 5.3 µg/mL (≈ 10.1 µM); in the data set on Staphylococcus aureus [12] it was 0.2 µg/mL (≈ 0.382 µM). Further, the Activity entry in the data set with L929 [3], in the data set with L929 [4] and in the data set with L929 [13] was “Non-toxic” throughout.
For `CCn1cc(C(=O)O)c(=O)c2cc(F)c(N3CCN(C(c4ccncc4)c4nnnn4C4CCCCC4)CC3)cc21` (configuration not stated), the MIC against Staphylococcus aureus [1] was 3.12 µg/mL (≈ 5.57 µM); against Staphylococcus aureus [2] it was 1.09 µg/mL (≈ 1.94 µM); in the data set on Staphylococcus aureus [5], 1 µg/mL (≈ 1.78 µM); against Staphylococcus aureus [6] it was 3.12 µg/mL (≈ 5.57 µM); in the data set on Staphylococcus aureus [7], > 50 µg/mL; against Escherichia coli [8] it was 4.2 µg/mL (≈ 7.49 µM). The MIC stood at 6.3 µg/mL (≈ 11.2 µM) in the data set with Klebsiella pneumoniae [9]; 6.25 µg/mL (≈ 11.1 µM) in the data set with Klebsiella pneumoniae [10]; 1.56 µg/mL (≈ 2.78 µM) against Staphylococcus aureus [11]; 0.6 µg/mL (≈ 1.07 µM) in the data set with Staphylococcus aureus [12]; 50 µg/mL (≈ 89.2 µM) against Staphylococcus aureus [14]; 6.25 µg/mL (≈ 11.1 µM) against Escherichia coli [15]. For the same molecule, the IC50 in the data set on Staphylococcus aureus [2] amounted to 0.37 µg/mL (≈ 0.66 µM); in the data set with Staphylococcus aureus [5] it was 0.6 µg/mL (≈ 1.07 µM); with Staphylococcus aureus [7] it was 50 µg/mL (≈ 89.2 µM); in the data set with Escherichia coli [8], 2.1 µg/mL (≈ 3.75 µM); in the data set on Klebsiella pneumoniae [9] it was 3.5 µg/mL (≈ 6.24 µM); with Staphylococcus aureus [12], 0.1 µg/mL (≈ 0.178 µM). For the same molecule, in the data set with L929 [4], the Activity entry was “Non-toxic”. Also, the “-logMIC” value with Staphylococcus aureus [11] came to 5.555.
Take `CCn1cc(C(=O)O)c(=O)c2cc(F)c(N3CCN(C(c4ccco4)c4nnnn4C4CCCCC4)CC3)cc21` (configuration not stated): the MIC amounted to 1.56 µg/mL (≈ 2.84 µM) in the data set with Staphylococcus aureus [1]; 0.45 µg/mL (≈ 0.819 µM) against Staphylococcus aureus [2]; 1.1 µg/mL (≈ 2 µM) against Staphylococcus aureus [5]; 0.78 µg/mL (≈ 1.42 µM) in the data set with Staphylococcus aureus [6]; 8.2 µg/mL (≈ 14.9 µM) in the data set with Staphylococcus aureus [7]; 11.6 µg/mL (≈ 21.1 µM) against Escherichia coli [8]. The MIC with Klebsiella pneumoniae [9] was 5.2 µg/mL (≈ 9.46 µM); with Klebsiella pneumoniae [10], 6.25 µg/mL (≈ 11.4 µM); in the data set with Staphylococcus aureus [11], 0.78 µg/mL (≈ 1.42 µM); in the data set with Staphylococcus aureus [12], 0.88 µg/mL (≈ 1.6 µM); against Staphylococcus aureus [14] it was 25 µg/mL (≈ 45.5 µM); in the data set on Escherichia coli [15] it was 12.5 µg/mL (≈ 22.7 µM). In addition, the IC50 with Staphylococcus aureus [2] was 0.22 µg/mL (≈ 0.4 µM); with Staphylococcus aureus [5], 0.6 µg/mL (≈ 1.09 µM); in the data set with Staphylococcus aureus [7], 3.7 µg/mL (≈ 6.73 µM); in the data set on Escherichia coli [8], 4.9 µg/mL (≈ 8.92 µM); in the data set with Klebsiella pneumoniae [9] it was 2.4 µg/mL (≈ 4.37 µM); in the data set with Staphylococcus aureus [12] it was 0.4 µg/mL (≈ 0.728 µM). Further, the Activity result in the data set on L929 [4] and in the data set on L929 [13] was “Non-toxic” each time. Besides, in the data set on Staphylococcus aureus [11], the “-logMIC” value is 5.847.
Regarding `CCn1cc(C(=O)O)c(=O)c2cc(F)c(N3CCN(C(c4ccc(OC)c(OC)c4OC)c4nnnn4C(C)(C)C)CC3)cc21` (configuration not stated), the MIC was found to be 3.12 µg/mL (≈ 5 µM) in the data set with Staphylococcus aureus [1]; 0.81 µg/mL (≈ 1.3 µM) in the data set on Staphylococcus aureus [2]; 1.4 µg/mL (≈ 2.24 µM) against Staphylococcus aureus [5]; 3.12 µg/mL (≈ 5 µM) in the data set with Staphylococcus aureus [6]; 50 µg/mL (≈ 80.2 µM) in the data set with Staphylococcus aureus [7]; 46 µg/mL (≈ 73.8 µM) against Escherichia coli [8]. The MIC with Klebsiella pneumoniae [9] was > 50 µg/mL; with Klebsiella pneumoniae [10], > 50 µg/mL; in the data set with Staphylococcus aureus [11], 1.56 µg/mL (≈ 2.5 µM); with Staphylococcus aureus [12] it was 0.87 µg/mL (≈ 1.39 µM); in the data set with Staphylococcus aureus [14], 50 µg/mL (≈ 80.2 µM); in the data set on Escherichia coli [15], 50 µg/mL (≈ 80.2 µM). Also, the IC50 in the data set with Staphylococcus aureus [2] was 0.4 µg/mL (≈ 0.641 µM); in the data set with Staphylococcus aureus [5], 0.8 µg/mL (≈ 1.28 µM); in the data set on Staphylococcus aureus [7] it was 50 µg/mL (≈ 80.2 µM); with Escherichia coli [8] it was 29 µg/mL (≈ 46.5 µM); with Klebsiella pneumoniae [9], > 50 µg/mL; with Staphylococcus aureus [12], 0.75 µg/mL (≈ 1.2 µM). For the same molecule, in the data set on L929 [4], the Activity entry was “Non-toxic”. For the same molecule, in the data set with Staphylococcus aureus [11], the “-logMIC” value was found to be 5.602.
Turning to `CCn1cc(C(=O)O)c(=O)c2cc(F)c(N3CCN(C(c4ccc(OC)c(OC)c4OC)c4nnnn4C4CCCCC4)CC3)cc21` (configuration not stated), the MIC against Staphylococcus aureus [1] was determined as 1.56 µg/mL (≈ 2.4 µM); against Staphylococcus aureus [2], 1.35 µg/mL (≈ 2.08 µM); against Staphylococcus aureus [5] it was 0.8 µg/mL (≈ 1.23 µM); with Staphylococcus aureus [6] it was 1.56 µg/mL (≈ 2.4 µM); in the data set with Staphylococcus aureus [7] it was 28.9 µg/mL (≈ 44.5 µM); in the data set on Staphylococcus aureus [11], 1.56 µg/mL (≈ 2.4 µM). Moreover, the MIC came out at 0.8 µg/mL (≈ 1.23 µM) against Staphylococcus aureus [12] and 25 µg/mL (≈ 38.5 µM) against Staphylococcus aureus [14]. In addition, the IC50 with Staphylococcus aureus [2] was found to be 0.37 µg/mL (≈ 0.569 µM); in the data set on Staphylococcus aureus [5], 0.7 µg/mL (≈ 1.08 µM); in the data set with Staphylococcus aureus [7], 14.6 µg/mL (≈ 22.5 µM); in the data set with Staphylococcus aureus [12] it was 0.7 µg/mL (≈ 1.08 µM). The Activity entry in the data set on L929 [4] and in the data set with L929 [13] was “Non-toxic” throughout. Also, the “-logMIC” value with Staphylococcus aureus [11] worked out at 5.318.
`CCn1cc(C(=O)O)c(=O)c2cc(F)c(N3CCN(C(c4ccncc4)c4nnnn4C(C)(C)C)CC3)cc21` (configuration not stated): the MIC was 1.56 µg/mL (≈ 2.92 µM) in the data set on Staphylococcus aureus [1]; 0.9 µg/mL (≈ 1.68 µM) against Staphylococcus aureus [2]; 0.9 µg/mL (≈ 1.68 µM) in the data set with Staphylococcus aureus [5]; 1.56 µg/mL (≈ 2.92 µM) in the data set with Staphylococcus aureus [6]; 50 µg/mL (≈ 93.5 µM) with Staphylococcus aureus [7]; 27.7 µg/mL (≈ 51.8 µM) in the data set on Escherichia coli [8]. The MIC against Klebsiella pneumoniae [9] was 26 µg/mL (≈ 48.6 µM); against Klebsiella pneumoniae [10], 25 µg/mL (≈ 46.8 µM); in the data set with Staphylococcus aureus [11], 1.56 µg/mL (≈ 2.92 µM); against Staphylococcus aureus [12] it was 0.7 µg/mL (≈ 1.31 µM); in the data set with Staphylococcus aureus [14] it was 50 µg/mL (≈ 93.5 µM); with Escherichia coli [15], 25 µg/mL (≈ 46.8 µM). For the same molecule, the IC50 in the data set on Staphylococcus aureus [2] was determined as 0.5 µg/mL (≈ 0.935 µM); in the data set with Staphylococcus aureus [5], 0.6 µg/mL (≈ 1.12 µM); in the data set on Staphylococcus aureus [7] it was 50 µg/mL (≈ 93.5 µM); with Escherichia coli [8], 20.5 µg/mL (≈ 38.3 µM); in the data set on Klebsiella pneumoniae [9], 24 µg/mL (≈ 44.9 µM); with Staphylococcus aureus [12], 0.35 µg/mL (≈ 0.655 µM). Besides, the Activity result with L929 [4] is given as “Non-toxic”. Also, in the data set on Staphylococcus aureus [11], the “-logMIC” value worked out at 5.534.
